According to publication PMC2813692 (Molecular cancer therapeutics, 2008):

Tests used:
[1] = Plasma pharmacokinetics by LC-MS/MS
[2] = system: subjects of the Adenoma Prevention with Celecoxib Trial; conditions: ref [32], cited from earlier work
[3] = system: metastatic colorectal cancer; conditions: second-line single-agent; ref [33]; cited from earlier work
[4] = capecitabine 1,000 mg/m^2 alone (run-in, Pre), mean ± SD in 8 patients
[5] = capecitabine 1,000 mg/m^2 in combination with 250 mg gefitinib, C1D1, mean ± SD in 8 patients

In the case of `CCCCCOC(=O)Nc1nc(=O)n([C@@H]2O[C@H](C)[C@@H](O)[C@H]2O)cc1F` [capecitabine], the “effect of gefitinib on the AUC, Cmax, t1/2, and clearance of capecitabine” value ([1]; alone (run-in day) vs in combination with gefitinib (cycle 1 day 1)) is reported as “no significant effects”, the CL/F [1, 4] is reported as 272 ± 120 L/h and the t1/2λ [1, 4] is reported as 0.93 ± 0.92 h. It also gave a CL/F [1, 5] of 300 ± 204 L/h, a t1/2λ [1, 5] of 1.09 ± 0.80 h and a Vd/F ([1]; human, plasma, oral, 1000 mg/m^2) of 363 ± 364 L. It also gave an AUC(0-inf) ([1]; human, plasma, oral, AUC0→∞, capecitabine 1,000 mg/m^2 in combination with 250 mg gefitinib, C1D1, mean ± SD in 8 patients) of 13.2 ± 8.1 µM·h.
For `Cc1ccc(-c2cc(C(F)(F)F)nn2-c2ccc(S(N)(=O)=O)cc2)cc1` [celecoxib], the “subjects who experienced cardiovascular events” value ([2]; 35 of 1,356 subjects who received celecoxib) is given as 2.6%, the “increase in risk of major fatal and nonfatal cardiovascular events” value ([2]; compared with placebo) is given as 2.5 fold and the “steady-state plasma trough levels of celecoxib” value ([1]; across any of the doses tested (data not shown)) is given as “Neither capecitabine nor gefitinib affected”.
For `COc1cc2ncnc(Nc3ccc(F)c(Cl)c3)c2cc1OCCCN1CCOCC1` [gefitinib], the “effect of capecitabine on the trough levels of gefitinib” value ([1]; across dose levels) was “did not affect”.
In the case of `O=C1[O][Pt]2([NH][C@@H]3CCCC[C@H]3[NH]2)[O]C1=O` [oxaliplatin], the response rate [3] is listed as 10%.
